The results in this text go back to article PMC12459020, “Chemical Probes that Target a Dissociative LuxR-Type Quorum Sensing Receptor in Gram-Negative Bacteria” (ACS Chemical Biology, 2025).

Structures are written as SMILES.

In one data set the target is T1, EsaR (Pantoea stewartii subsp. stewartii, UniProt P54293).
T1 construct: expressed in transfected cells; host or cells: E. coli JLD271 (K12 ΔsdiA), arabinose-induced pJN105-esaR
In words: cell-based. As to conditions: 100 μM; E. coli EsaR reporter. The gist of the method:
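E. coli carrying arabinose-induced esaR plus pesaS (activated) or pesaR (repressed) promoter fused to lux or GFP; P. stewartii ESN51 GFP reporters also used.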

Data set [1] can be described thus: Solubility remark on supplementary figure page. The format is physicochemical. As to conditions: stray annotation on SI page 6.

T1 sequence (P54293 whole entry): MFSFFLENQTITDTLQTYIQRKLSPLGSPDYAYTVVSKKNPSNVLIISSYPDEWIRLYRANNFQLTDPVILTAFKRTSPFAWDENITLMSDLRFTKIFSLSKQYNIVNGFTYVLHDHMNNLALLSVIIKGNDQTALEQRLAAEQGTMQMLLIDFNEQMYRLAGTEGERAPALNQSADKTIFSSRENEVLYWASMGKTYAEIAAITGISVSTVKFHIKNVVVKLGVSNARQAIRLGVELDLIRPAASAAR

As for `O=C(N[C@H]1CCOC1=O)c1ccc(Cl)c(Cl)c1` [GAF 58], the “EsaR agonism at 100 μM (bound stated in text)” value on EsaR is “less than 50%”. For the same compound, in data set [1], the solubility remark result is on record as “slighly insoluble”.
